Literature values, collected in patent US6538179B1, “Enhanced starch biosynthesis in seeds” (Monsanto Technology LLC, priority 1990, dated 2003).

Target: plant ADPGPP (Solanum tuberosum, UniProt P23509+Q00081)
Sequence (Q00081 whole entry): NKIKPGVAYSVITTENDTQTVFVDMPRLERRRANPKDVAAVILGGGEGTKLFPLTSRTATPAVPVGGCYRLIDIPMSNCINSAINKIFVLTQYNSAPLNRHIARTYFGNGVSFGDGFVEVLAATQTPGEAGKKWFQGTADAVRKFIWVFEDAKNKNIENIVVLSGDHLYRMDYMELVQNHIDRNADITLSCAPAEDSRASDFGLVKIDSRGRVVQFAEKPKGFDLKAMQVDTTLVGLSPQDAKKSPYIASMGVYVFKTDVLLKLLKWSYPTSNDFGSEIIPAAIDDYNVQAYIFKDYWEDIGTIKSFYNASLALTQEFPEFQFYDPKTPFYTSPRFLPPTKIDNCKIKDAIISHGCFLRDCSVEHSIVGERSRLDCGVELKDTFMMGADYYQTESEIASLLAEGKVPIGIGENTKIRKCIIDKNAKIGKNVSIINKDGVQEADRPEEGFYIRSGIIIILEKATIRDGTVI
Sequence (P23509 73-521): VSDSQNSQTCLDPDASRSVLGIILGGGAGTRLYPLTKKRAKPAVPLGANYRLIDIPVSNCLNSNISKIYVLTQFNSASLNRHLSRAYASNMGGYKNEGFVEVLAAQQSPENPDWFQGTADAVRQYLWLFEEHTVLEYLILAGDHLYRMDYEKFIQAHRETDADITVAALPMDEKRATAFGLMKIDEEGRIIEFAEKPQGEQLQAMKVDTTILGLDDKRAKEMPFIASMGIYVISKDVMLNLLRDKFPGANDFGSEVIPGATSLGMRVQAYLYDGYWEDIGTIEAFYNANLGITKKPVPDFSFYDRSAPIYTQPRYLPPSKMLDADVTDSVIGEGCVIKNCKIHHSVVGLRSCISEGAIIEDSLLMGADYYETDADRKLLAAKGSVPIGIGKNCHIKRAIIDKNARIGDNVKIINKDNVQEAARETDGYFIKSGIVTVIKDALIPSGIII

| SMILES | EC50 (activation of ADPGPP by 3-PGA, read-out: A0.5) [µM] | IC50 (read-out: I0.5, inhibition of ADPGPP by Pi) [µM] |
| --- | --- | --- |
| O=C(O)[C@H](O)COP(=O)(O)O [3-PGA, 3-phosphoglycerate] | 75 |  |
| O=P(O)(O)O [Pi, inorganic phosphate] |  | 45 |
